This is an account of results in ChEMBL document CHEMBL1141325, “Pinpointing pseurotins from a marine-derived Aspergillus as tools for chemical genetics using a synthetic lethality yeast screen” (2007).

Activity calls are given as the source filed them. No cut-off for these calls is given here.

Experiment [1] deals with Saccharomyces cerevisiae. The experiment is described as follows: Cytotoxicity against wild-type Saccharomyces cerevisiae by yeast halo assay relative to control. Type of experiment: functional.
In experiment [2] the test system is Saccharomyces cerevisiae. The experiment is described as follows: Cytotoxicity against wild-type Saccharomyces cerevisiae hof1delta mutant by yeast halo assay relative to control. Type of experiment: functional.

Consider `CC/C=C\[C@H](OC)[C@H](O)C1=C(C)C(=O)[C@]2(O1)C(=O)N[C@@](OC)(C(=O)c1ccccc1)[C@@H]2O` [11-O-METHYLPSEUROTIN A], for which the entries for the “inhibition zone (IZ)” value in experiment [1] and in experiment [2] were 4 mm and 9 mm, respectively.
Turning to `CC/C=C\[C@H](O)[C@H](O)C1=C(C)C(=O)[C@]2(O1)C(=O)N[C@@](OC)(C(=O)c1ccccc1)[C@@H]2O`, the result in experiment [1] and in experiment [2] was inactive.
